Entries after “also recorded” stand apart in the source; their conditions may differ.
Experiments:
[1] = U.S. Pat. No. 6,143,738; Ahima et al. (2002); cited from earlier work
[2] = test system: B6D2F1 (BDF1) mice; assay: Dose response of growth delay in BDF1 mice (Example 1, FIG. 2); type: in vivo; conditions: for age at which animals reached maturity: male BDF1 mice, controls 120 days; for delay in reaching maturity, as measured by end weight: vs control
Description: While all animals reached the mature weight of about 40 grams, the control animals reached maturity at 120 days, and the animals that received 5 and 10 mg/kg of Aminosterol 1436 reached maturity at 150 and 255 days, respectively.
An experiment was conducted to explore the dose response to a delay in growth of B6D2F1 (BDF1) mice to Aminsoterol 1436.
30 day old male BDF1 mice received either vehicle or Aminosterol 1436 intraveneously (IV) at 5 mg/kg or 10 mg/kg (n=15 for each treatment arm) every 3 days until 51 days of age. The Aminosterol 1436 was administered as a aqueous solution in water. BDF1 mice are available from Charles River Laboratories. The animals were fed standard lab chow, offered ad libitum. The animals were weighed and body length measured every 5 days.
However, while the control animals reached maturity at 120 days, the animals that received 5 mg/kg of Aminosterol 1436 reached maturity at 150 days, corresponding to a 25% delay in reaching maturity, as measured by end weight. […] Most importantly, both treated and untreated animals reached normal adult dimensions, albeit at different rates.

[3] = test system: C57BL/6 males; assay: Growth delay in C57BL/6 mice (Example 2, FIG. 3); type: in vivo; conditions: for weight: 10 mg/kg i.p. every 3 days for two doses
Description: Animals were then weighed and body length measured once weekly for a period of 40 days.
An experiment was conducted to determine whether treatment of animals with Aminosterol 1436 would delay growth of the animal.
C57BL/6 males (12-16 grams) were administered either vehicle or 10 mg/kg (i.p.) of Aminosterol 1436 every 3 days for two doses, for a total of 20 mg/kg over a 6 day period. The mice were about 3 weeks old, and there were 10 mice/arm. The animals were weighed and body length measured once weekly for a period of 40 days.
The results shown in FIG. 3 indicate that growth rates of the animals were slowed upon administration of Aminosterol 1436, which is consistent with the results shown in FIG. 2 and described in Example 1.

[4] = Brain localisation of radioactive Aminosterol 1436 after IV or ICV administration (FIG. 1); type: in vivo; conditions: radioactive compound, rat, IV via peripheral vein or injected into 3rd ventricle (ICV)
Text: The exact mechanism by which Aminosterol 1436 achieves its effect on preventing, delaying onset, and/or treating neurodegeneration, delaying maturity, retarding aging, and increasing potential lifespan is not known. However, without being bound by theory, Applicant theorizes that the effect of Aminosterol 1436 is likely in part due to the drug's effects on the hypothalamus within the brain of the animal.

[5] = test system: adult mouse; assay: Neuroregeneration in adult mouse brain; type: in vivo
Text: The hypothalamus is of particular interest because it happens to be the site of localization of Aminosterol 1436 in the brain.

[6] = test system: HIV; conditions: tissue culture; U.S. Pat. No. 5,763,430; cited from earlier work
[7] = biological target: T1, phosphatase PTP1B (Homo sapiens, UniProt P18031); conditions: Lantz et al., 2010; cited from earlier work
T1 sequence (P18031 1-435): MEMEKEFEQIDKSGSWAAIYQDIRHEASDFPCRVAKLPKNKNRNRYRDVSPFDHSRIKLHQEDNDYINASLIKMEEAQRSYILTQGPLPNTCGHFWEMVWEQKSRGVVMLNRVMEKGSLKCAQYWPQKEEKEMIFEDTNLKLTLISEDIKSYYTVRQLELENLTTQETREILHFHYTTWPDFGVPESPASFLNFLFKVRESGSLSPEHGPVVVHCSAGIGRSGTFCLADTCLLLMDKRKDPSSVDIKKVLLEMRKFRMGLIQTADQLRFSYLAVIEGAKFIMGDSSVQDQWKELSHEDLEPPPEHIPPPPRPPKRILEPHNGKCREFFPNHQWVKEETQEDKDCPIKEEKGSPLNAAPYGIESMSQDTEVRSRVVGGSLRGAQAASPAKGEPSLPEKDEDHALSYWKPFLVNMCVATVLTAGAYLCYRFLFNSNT

| Structure (SMILES) | appetite suppression and weight loss [1] | growth rate slower than the controls (by increasing weight) ([2]; 5 mg/kg IV) | age at which animals reached maturity ([2]; 5 mg/kg IV every 3 days from 30 to 51 days of age) [days] | delay in reaching maturity, as measured by end weight ([2]; 5 mg/kg IV) [%] | growth rate slowed (by increasing weight) ([2]; 10 mg/kg IV) [%] | age at which animals reached maturity ([2]; 10 mg/kg IV every 3 days from 30 to 51 days of age) [days] | delay in reaching maturity, as measured by end weight ([2]; 10 mg/kg IV) [%] | linear growth ([2]; 5 and 10 mg/kg IV, data not shown) | mature weight reached ([2]; all animals (5 mg/kg, 10 mg/kg and control)) | weight ([3]; Day 0, control 16 g) [g] | decrease in weight ([3]; Day 0 to Day 40, 10 mg/kg i.p. x 2, control increase of 50%) [%] | weight ([3]; Day 40, control 24 g) [g] | accumulation in brain [4] | neuroregeneration [5] | number of cells in brain areas ([5]; subependymal zone, granular layers of olfactory bulb, medial and lateral hypothalamus, thalamus) | antiviral activity against HIV [6] | inhibition of PTP1B [7] |
| --- | --- | --- | --- | --- | --- | --- | --- | --- | --- | --- | --- | --- | --- | --- | --- | --- | --- |
| CC(C)[C@@H](CC[C@@H](C)[C@H]1CC[C@H]2[C@@H]3[C@H](O)C[C@H]4C[C@@H](NCCCNCCCCN)CC[C@]4(C)[C@H]3CC[C@]12C)OS(=O)(=O)O [squalamine, reference compound] | not shared with squalamine |  |  |  |  |  |  |  |  |  |  |  |  |  |  |  |  |
| CC(C)[C@@H](CC[C@@H](C)[C@H]1CC[C@H]2[C@@H]3[C@H](O)C[C@H]4C[C@@H](NCCCNCCCCNCCCN)CC[C@]4(C)[C@H]3CC[C@]12C)OS(=O)(=O)O [Aminosterol 1436, trodusquemine] | potent appetite suppression and promotion of dose-dependent weight loss | about 30% | 150 | 25 | 50 | 255 | 112.5 | slowed to a corresponding degree | about 40 grams | 12 | 8.3 | 11 | accumulation of Aminosterol 1436 within the centers of the brain that control growth, maturation, and senescence; also recorded: accumulates within the centers of the brain that control growth, maturation and senescence | stimulates neuroregeneration | increase | exhibits antiviral activity against HIV | inhibit the phosphatase PTP1B |
